# Assay results published in ChEMBL document CHEMBL5614416, “Discovery of novel thiophene[3,2-d]pyrimidine-based tubulin inhibitors with enhanced antitumor efficacy for combined use with anti-pd-l1 immunotherapy in melanoma” (Eur J Med Chem, 2024).
# pIC50: −log10 of the molar value. Calls of active or inactive are those of the source. The calls are words filed in the database; no cut-off is given here.
# Key:
# HCT-116 = assay: Antiproliferative activity against human HCT-116 cells incubated for 48 hrs by MTT assay; type: functional, cell-based; settings: HCT-116, 48 h
# B16-F10 [1] = assay: Antiproliferative activity against mouse B16-F10 cells incubated for 48 hrs by MTT assay; type: functional, cell-based; settings: B16-F10, 48 h
# HeLa = assay: Antiproliferative activity against human HeLa cells incubated for 48 hrs by MTT assay; type: functional, cell-based
# MCF7 = assay: Antiproliferative activity against human MCF7 cells incubated for 48 hrs by MTT assay; type: functional, cell-based; settings: MCF7, 48 h
# NCI-H23 = assay: Antiproliferative activity against human NCI-H23 cells incubated for 48 hrs by MTT assay; type: functional, cell-based; settings: NCI-H23, 48 h
# HepG2 = assay: Antiproliferative activity against human HepG2 cells incubated for 48 hrs by MTT assay; type: functional, cell-based; settings: HepG2, 48 h
# B16-F10 [2] = assay: Antitumor activity against mouse B16-F10 cells xenografted in C57 mouse assessed as suppression of tumor growth at 7 mg/kg, ip qd for 12 days; type: functional, organism-based; settings: time 12.0 day
# B16-F10 [3] = assay: Antitumor activity against mouse B16-F10 cells xenografted in C57 mouse at 7 mg/kg, ip qd for 12 days relative to control; type: functional; settings: B16-F10, 288 h, time 12 day, read-out: TGI
# [4] = Toxicity in C57 mouse xenografted with mouse B16-F10 cells assessed as body weight change at 7 mg/kg, ip qd for 12 days; type: organism-based; settings: in vivo, 288 h, time 12 day
SMILES,pIC50 (HCT-116),pIC50 (B16-F10 [1]),pIC50 (HeLa),pIC50 (MCF7),pIC50 (NCI-H23),pIC50 (HepG2),Activity (B16-F10 [2]),inhibition in vivo at 7 mg/kg (B16-F10 [3]),Activity [4]
Cc1nc(N(C)c2ccc(Cl)c(Cl)c2)c2sccc2n1,< 7.00,< 7.00,< 7.00,< 7.00,< 7.00,< 7.00,–,–,–
Cc1nc(N(C)c2ccc3ccccc3c2)c2sccc2n1,9.24,7.81,8.05,7.70,7.73,7.74,–,–,–
COc1ccccc1N(C)c1nc(C)nc2ccsc12,< 7.00,< 7.00,< 7.00,< 7.00,< 7.00,< 7.00,–,–,–
COc1ccc(N(C)c2nc(C)nc3ccsc23)cc1C(F)(F)F,< 7.00,< 7.00,< 7.00,< 7.00,< 7.00,< 7.00,–,–,–
COc1ccc(N(C)c2nc(C)nc3ccsc23)cc1OC,< 7.00,< 7.00,< 7.00,< 7.00,< 7.00,< 7.00,–,–,–
Cc1nc(N(C)c2ccccc2C)c2sccc2n1,< 7.00,< 7.00,< 7.00,< 7.00,< 7.00,< 7.00,–,–,–
COc1cc(OC)cc(N(C)c2nc(C)nc3ccsc23)c1,< 7.00,< 7.00,< 7.00,< 7.00,< 7.00,< 7.00,–,–,–
Cc1nc(N(C)c2ccc(OC(C)C)cc2)c2sccc2n1,< 7.00,< 7.00,< 7.00,< 7.00,< 7.00,< 7.00,–,–,–
Cc1nc(N(C)c2ccc(C(F)(F)F)cc2)c2sccc2n1,< 7.00,< 7.00,< 7.00,< 7.00,< 7.00,< 7.00,–,–,–
CN(c1ccc2c(ccn2C)c1)c1ncnc2ccsc12,< 7.00,< 7.00,< 7.00,< 7.00,< 7.00,< 7.00,–,–,–
Cc1nc(N(C)c2cccc3ccccc23)c2sccc2n1,< 7.00,< 7.00,< 7.00,< 7.00,< 7.00,< 7.00,–,–,–
COc1cccc(N(C)c2nc(C)nc3ccsc23)c1,< 7.00,< 7.00,< 7.00,< 7.00,< 7.00,< 7.00,–,–,–
Cc1nc(N(C)c2ccc(C(C)C)cc2)c2sccc2n1,< 7.00,< 7.00,< 7.00,< 7.00,< 7.00,< 7.00,–,–,–
Cc1cccc(N(C)c2nc(C)nc3ccsc23)c1,< 7.00,< 7.00,< 7.00,< 7.00,< 7.00,< 7.00,–,–,–
COc1ccc(N(C)c2nc(C)nc3ccsc23)cc1[N+](=O)[O-],8.81,8.20,7.70,8.33,7.73,7.73,–,–,–
Cc1nc(N(C)c2cc(Cl)cc(Cl)c2)c2sccc2n1,< 7.00,< 7.00,< 7.00,< 7.00,< 7.00,< 7.00,–,–,–
Cc1c(COc2cc(OCc3cccc(C#N)c3)c(CNC(C)(C)C(=O)O)cc2Cl)cccc1-c1ccccc1,–,–,–,–,–,–,Active,43.9%,Non-Toxic
COc1ccc(N(C)c2nc(C)nc3ccsc23)cc1,8.51,7.52,7.73,8.85,8.03,7.73,–,–,–
Cc1nc(N(C)c2cccc(OC(F)(F)F)c2)c2sccc2n1,< 7.00,< 7.00,< 7.00,< 7.00,< 7.00,< 7.00,–,–,–
COc1cc2c(c(OC)c1OC)-c1ccc(OC)c(=O)cc1[C@@H](NC(C)=O)CC2 [COLCHICINE],8.03,7.73,8.03,–,8.51,8.30,–,–,–
COc1cc(N(C)c2nc(C)nc3ccsc23)cc(OC)c1OC,< 7.00,< 7.00,< 7.00,< 7.00,< 7.00,< 7.00,–,–,–
Cc1ccc(N(C)c2nc(C)nc3ccsc23)cc1,< 7.00,< 7.00,< 7.00,< 7.00,< 7.00,< 7.00,–,–,–
Cc1nc(N(C)c2cccc(C(F)(F)F)c2)c2sccc2n1,< 7.00,< 7.00,< 7.00,< 7.00,< 7.00,< 7.00,–,–,–
